Earlier results on 1 compound are cited in patent publication US10022348B2, “Topical solution of isotretinoin” (SUN PHARMACEUTICAL INDUSTRIES LIMITED, priority 2009, dated 2018).

The test system of this series is patients with severe acne. Conditions: oral.

Consider `CC1=C(/C=C/C(C)=C/C=C/C(C)=C\C(=O)O)C(C)(C)CCC1` [isotretinoin, 13-cis retinoic acid], for which the long-term remission entry is recorded as “about 80 % of patients”.
